Data published in patent publication US7109380B2, “Cyclopentenedione antifungal compounds and methods for their use” (The University of Mississippi, priority 2004, dated 2006).
≈ marks a conversion by molar mass, not a printed value. Like-named read-outs stand apart in the source and are kept apart here.

How the values were obtained:
C. krusei ATCC 6258 = assay: In vitro antimicrobial assay (modified NCCLS), Candida media pH 4.5; format: cell-based, Candida krusei; conditions: Pichia kudriavzevii, ATCC6258, pH 4.5, read-out: IC50 (50% inhibitory concentration)
[1] = tested on: Candida albicans ATCC 90028; assay: In vitro antifungal susceptibility testing (modified NCCLS method), media pH 7.3; format: cell-based
[2] = tested on: Germinating Conidia of Fusarium moniliforme; assay: Lethality bioassay on germinating conidia; format: cell-based; conditions: for viability at 5 µM / viability at 10 µM / viability at 15 µM / viability at 20 µM / viability at 25 µM / viability at 30 µM: Fusarium verticillioides, read-out: Percent of Control Mean (viable colonies, Fusarium moniliforme)
Protocol: (§1) Pathogen production. Stock slant isolates of Aspergillus flavus, Fusarium oxysporum, and Fusarium moniliforme were grown on potato dextrose agar (Difco, Detroit, Mich.) slants for 7 days at room temperature (22° C.).
(§2) Inoculum preparation. Prior to a bioassay, 4 ml of 1% potato dextrose broth (PDB, Difco, Detroit, Mich.), pH 4.86, was added to a stock culture slant. The conidia were suspended by gentle agitation using the pipette tip and the population determined with the use of a hemocytometer. The conidia were then diluted to a 10^4 conidia/ml concentration and incubated for 8 hrs at 22° C. to obtain germinating conidia that were used in the bioassays.
(§3) Experimental design of lethality bioassays to determine activity of coruscanone A. Coruscanone A was diluted in 100% methanol with a further dilution in PDB to achieve a stock concentration of 0.032 μg/μl. Test mixtures of germinating conidia and compound 67 were made in sterile 500 μl Eppendorf (Brinkman, Westbury, N.Y.) microcentrifuge tubes. Final test concentrations of compound 67 were 0, 5, 10, 15, 20, 25, and 30 μM in a final volume of 250 μl (0.0635 μg/μl=1.0 μM/250 μl). After an incubation of 30 min, 16 hours and 24 hours at 22° C., aliquots (50 μl) of the each sample were spread on each of 4 PDA plates. The plates were incubated at 22° C. for 2 days and the developed, viable colonies were enumerated. Separate bioassays were also set up at the same time as that with the 30 min incubation period but incubated at 22° C. for 16 and 24 hours, respectively. These samples were spread as previously described and the developing, viable colonies enumerated. Bioassays were performed on three separate occasions per fungus (n=12). Statistical analysis was performed using SigmaPlot 9.0 (p<0.05).

[3] = tested on: Germinating conidia of Aspergillus flavus; assay: Lethality bioassay on germinating conidia; format: cell-based; conditions: for viability at 5 µM / viability at 10 µM / viability at 15 µM / viability at 20 µM / viability at 25 µM / viability at 30 µM: read-out: Percent of Control Mean (viable colonies, Aspergillus flavus)
Protocol: as §1, §2, §3

[4] = tested on: Germinating Conidia of Fusarium oxysporum; assay: Lethality bioassay on germinating conidia; format: cell-based; conditions: for viability at 5 µM / viability at 10 µM / viability at 15 µM / viability at 20 µM / viability at 25 µM / viability at 30 µM: read-out: Percent of Control Mean (viable colonies, Fusarium oxysporum)
Protocol: as §1, §2, §3

COC(/C=C/c1ccccc1)=C1\C(=O)C=C(C)C1=O [Compound 1, coruscanone A]
IC50 (C. krusei ATCC 6258): 2.5 µg/mL (≈ 9.83 µM) | Antifungal activity against C. albicans (in words) [1]: potent activity | MFC ([1]; ATCC90028, Candida albicans ATCC 90028, Table 1, read-out: MFC (Minimum Fungicidal Concentration)): 1.56 µg/mL (≈ 6.13 µM) | MIC ([1]; ATCC90028, Candida albicans ATCC 90028, Table 1, read-out: MIC (Minimum Inhibitory Concentration)): 0.78 µg/mL (≈ 3.07 µM) | Antifungal activity against C. albicans (in words) ([1]; listed as coruscanone A): comparable to or stronger than those of positive control drugs | Concentration at and above which significant and increasing lethality was observed ([2]; Fusarium moniliforme, 16 and 24 hours of incubation): ≥ 5 µM | Lethality to germinating conidia (in words) ([2]; Fusarium moniliforme, 30 min incubation): not significantly lethal | viability at 5 µM ([2]; 0.5 h): 106% | viability at 10 µM ([2]; 0.5 h): 85.4% | viability at 15 µM ([2]; 0.5 h): 114% | viability at 20 µM ([2]; 0.5 h): 102% | viability at 25 µM ([2]; 0.5 h): 99.7% | viability at 30 µM ([2]; 0.5 h): 90.8% | viability at 5 µM ([2]; 16 h): 12.5% | viability at 10 µM ([2]; 16 h): 6.1% | viability at 15 µM ([2]; 16 h): 5.3% | viability at 20 µM ([2]; 16 h): 2.7% | viability at 25 µM ([2]; 16 h): 2.1% | viability at 30 µM ([2]; 16 h): 1.6% | viability at 5 µM ([2]; 24 h): 38.6% | viability at 10 µM ([2]; 24 h): 7.4% | viability at 15 µM ([2]; 24 h): 4.2% | viability at 20 µM ([2]; 24 h): 3.9% | viability at 25 µM ([2]; 24 h): 2.2% | viability at 30 µM ([2]; 24 h): 1.3% | viability at 5 µM ([3]; 0.5 h): 109% | viability at 10 µM ([3]; 0.5 h): 86.6% | viability at 15 µM ([3]; 0.5 h): 98% | viability at 20 µM ([3]; 0.5 h): 78.9% | viability at 25 µM ([3]; 0.5 h): 70% | viability at 30 µM ([3]; 0.5 h): 66.5% | viability at 5 µM ([3]; 16 h): 75.2% | viability at 10 µM ([3]; 16 h): 76.4% | viability at 15 µM ([3]; 16 h): 45.4% | viability at 20 µM ([3]; 16 h): 39.1% | viability at 25 µM ([3]; 16 h): 30.5% | viability at 30 µM ([3]; 16 h): 19.5% | viability at 5 µM ([3]; 24 h): 113% | viability at 10 µM ([3]; 24 h): 71.8% | viability at 15 µM ([3]; 24 h): 64.8% | viability at 20 µM ([3]; 24 h): 55.7% | viability at 25 µM ([3]; 24 h): 40.6% | viability at 30 µM ([3]; 24 h): 28.7% | Lethality to germinating conidia (in words) ([3]; after 24 hours of incubation, any tested concentration): no longer significantly lethal | Lethality to germinating conidia (in words) ([3]; incubated 30 min): not lethal | viability at 5 µM ([4]; 0.5 h): 110% | viability at 10 µM ([4]; 0.5 h): 102% | viability at 15 µM ([4]; 0.5 h): 110% | viability at 20 µM ([4]; 0.5 h): 106% | viability at 25 µM ([4]; 0.5 h): 116% | viability at 30 µM ([4]; 0.5 h): 113% | viability at 5 µM ([4]; 16 h): 104% | viability at 10 µM ([4]; 16 h): 79.7% | viability at 15 µM ([4]; 16 h): 41.2% | viability at 20 µM ([4]; 16 h): 30.8% | viability at 25 µM ([4]; 16 h): 14.5% | viability at 30 µM ([4]; 16 h): 7.7% | Concentration at which significant and increasing lethality begins ([4]; 16 hour incubation): ≥ 15 µM | viability at 5 µM ([4]; 24 h): 80.2% | viability at 10 µM ([4]; 24 h): 56.7% | viability at 15 µM ([4]; 24 h): 35.2% | viability at 20 µM ([4]; 24 h): 19.4% | viability at 25 µM ([4]; 24 h): 10.9% | viability at 30 µM ([4]; 24 h): 4.3% | Concentration at and above which significantly and increasingly lethal ([4]; 24 hour incubation): ≥ 10 µM | Lethality to germinating conidia (in words) ([4]; any of the tested concentrations (time not given)): not lethal
